Reference: patent US20140134136A1, “COMPOSITIONS AND METHODS FOR AUDITORY THERAPY” (MASSACHUSETTS EYE AND EAR INFIRMARY, priority 2012, published 2014)
Entries after “also recorded” stand apart in the source; their conditions may differ.

Experiments:
myosin 7a = assay: Myosin 7a immunolabeling in transfected HEI OC1 cells; type: cell-based
Method: To test this, the expression of myosin 7a, which is a downstream target of Atoh1 signaling, was measured in HEI OC1 cells transfected with the Atoh1-ER-DsRed construct.

[1] = test system: Atoh1-ER-DsRed fusion protein; assay: Nuclear translocalization assay (DsRed fluorescence of isolated nuclei); type: cell-based; settings: for DsRed fluorescence in the nuclear fraction: HEK cells transfected with CMV-Atoh1-ER-DsRed, p<0.05; for localization of Atoh1-ER-DsRed to the nucleus: HEK cells, graded doses; for time to complete cytoplasmic localization of the fusion protein after removal from the culture media: removal of 4OHT/tamoxifen from culture media
Method: Constructs were generated to express inducible Atoh1-ER fusion proteins (FIG. 1).
HEK cells were cultured until 50% confluent in 6-well culture dishes (type) then subjected to transfection using 3:1 target DNA to Fugene 6 Transfection Reagent (ROCHE). […] Cells were then processed for cytosolic and nuclear fractionation (BioVision). The isolated nuclear fraction collected from each of 5 sample wells per condition was mounted to a coverslip and average pixel density from 5 regions of interest (206.5×165.2 pixel at 20× magnification) was measured with a Cy3 ([…]) filter on a Zeiss epifluorescent microscope using MetaMorph software.

[2] = test system: Atoh1 5′ enhancer/promoter region; assay: Luciferase assay of Atoh1 enhancer/promoter binding; type: cell-based; settings: HEK cells stably transfected with Atoh1enhancer-luciferase and transiently with Atoh1-ER-DsRed; 72 hrs, increasing doses
Method: The stably transfected HEK cells were transiently transfected with either the cmv.Atoh1-ER-DsRed construct or a cmv.DsRed-ER control construct. […] All cells were also co-transfected with Renilla transfection controls.
The Atoh1 5′ enhancer/promoter region (Helms, Abney et al. 2000) was cloned into the MCS of the pGL3-Promoter Luciferase Reporter Vector (Promega), and was stably expressed on a HEK cell line using selection to […]. These cells were grown until 80% confluent on 6-well plates, and then transiently transfected with either the cmv.Atoh1 control vector, the cmv.Atoh1-ER-DsRed construct, or a cmv.DsRed-ER negative control construct using 3:1 target DNA to Fugene 6 Transfection Reagent. All cells were also co-transfected with Renilla transfection controls. […] Firefly luciferase activity was measured in a manual TD-20/20 Luminometer (Turner Designs).

Atoh1 protein = assay: Western blot analysis of Atoh1 protein; type: cell-based; settings: transiently transfected HEK cells; different doses for 72 hr
Description: Whole cell protein was collected and processed for Western blot analysis. Positive control samples were transfected with a flag-tagged Atoh1 construct under control of a cmv promoter (flagAtoh1) and negative control samples were transfected with the DsRedER construct.
Control samples were similarly transfected with either DsRed-ER (negative control) or a positive control vector (cmv.flagAtoh1). Cells were lysed, the whole cell protein was collected and processed for Western blot analysis using either anti-Atoh1polyclonal antibody (Developmental Studies Hybridoma Bank) or a polyclonal anti-b-actin antibody (Sigma).

[3] = test system: Atoh1-ER-DsRed fusion protein; assay: Nuclear localization in electroporated cochlear spheres; type: cell-based, mice
Description: (DAPI=blue; DsRed fluorescence=red). […] Yellow box highlights optimal conditions (+=nuclear localization in […] of cells; −/+≈50% nuclear localization; −=>0.10% nuclear localization.
Cochlear derived progenitor cells were generated and floating aggregates (cochlear spheres) propagated as previously described (Oshima et al., Journal of the Association for Research in Otolaryngology, 2007. 8(1): 18-31) with the following modifications. Cochleas were isolated from litters of P0-P3 ROSA26-GFP mice, the organs of Corti were dissected, pooled, trypsinized, triturated, and centrifuged. The pellet was re-suspended in SFM, filtered through a […] cell strainer, and cultured for 5 days in this same media supplemented with growth factors (10 ng/ml of FGF, IGF, EGF, Heparin sulfate). Floating aggregates were collected, centrifuged, triturated using a 100 μl pipette, re-suspended in 300 μl Optimem, and electroporated (8 pulses; 25 V; duration, 50 ms; interval, 100 ms with 2 mg/ml DNA in water, and incubated in 3:1 Fugene 6 overnight) using 50 μg of plasmid DNA. […] Finally, spheres from each of these groups were centrifuged, adhered to glass coverslips by incubation for 2-4 hours at 37° C. on glass coverslips coated with 1:1 poly-lysine/polyornithine, fixed in 4% paraformaldehyde for 20 minutes, washed three times in PBS, and stored at 4° C. for later analysis.

Atoh1 mRNA = Atoh1 mRNA expression by RT-PCR and qPCR; type: cell-based; settings: HEK cells transiently transfected with Atoh1-ER-DsRed; different doses
Method: Transiently transfected HEK cells were incubated with different doses of 4OHT.
Next, total RNA was extracted from the cells by adding 1 ml Trizol reagent (Invitrogen) to each well for 5 min, cells were scraped into a 1.5 ml tube (1 tube/well), incubated with […] chloroform (in hood) for 2 min centrifuged for 20 min at 12,000 g at 4° C., supernatant was collected in a new 1.5 ml tube, incubated with 1:1 equivalent volume of 2-propanol equal volume to supernatant, and centrifuged through the RNeasy mini kit columns at 8000 g for 15 sec. RNA was eluted from the column by adding […] RW1, centrifuging the column at 8000 g 15 s, adding […] washes of RPE2 and re-centrifuging at 8000 g 15 s, adding one spin to dry membrane (10,000 g, 1 min), and eluting the RNA by adding […] RNAse free water into new 1.5 ml tube and centrifuging a final time at 8000 g for 15 s. […]
For quantitative PCR (qPCR) analysis, 300 μL of qPCR Master Mix (Invitrogen) was added to a PCR tube with 300 μL dH2O, which was then divided into 5 tubes (120 μL each). […] Quantitative PCR was performed and the amount of RNA was determined Delta delta Ct measurements were calculated for each treatment group, and then were normalized to fold change from groups incubated in the absence of tamoxifen. […]

[4] = test system: alpha and beta isoforms of the estrogen receptor; settings: cited from earlier work
organs of Corti = assay: Organ of Corti explants electroporated with the construct; type: cell-based, mice; settings: 1 μM tamoxifen
Description: The construct was electroporated into neonatal organs of Corti isolated from transgenic mouse pups that express GFP under control of the 5′ Atoh1 enhancer/promoter.

Atoh1 promoter/enhancer = assay: Comparison of constructs (Atoh1 promoter/enhancer binding, mRNA transcription, protein translation); type: cell-based
Description: FIG. 1A-FIG. 1E are schematics depicting constructs used to generate an inducible Atoh1 fusion protein. FIG. 1A depicts the construct termed Flag-Atoh1-ER-DsRed. In order to measure the translocation of the fusion protein between the cytoplasm and […], a construct was engineered to include the DsRed transgene. To aid in the detection of Atoh1 (Atonal homolog 1), several experimental constructs were engineered to include one or two consecutive flag-tagged sequences (Vallier, Mancip et al. 2001). To obtain the tamoxifen sensitive Atoh1 construct, PCR cloning primers were designed so that 1) an EcoRI site was placed on the 5′ end and a Kozac sequence (CACC) was placed upstream of the Atoh1 start codon; 2) the Atoh1 stop codon (TAG) was deleted; 3) the flag tagged Atoh1 sequence was linked to an Estrogen Receptor (ER) sequence by the sequence […] (SEQ ID NO: 1) encoding a polypeptide linker; 4) the ER stop codon (TAG) was deleted; 5) the ER sequence was linked to a DsRed sequence by the sequence […] (SEQ ID NO: 2) encoding a polypeptide linker; and 6) a Not I site was included on the 3′ end. The linker sequences were designed to translate into multiple proline sequences, which provide an increased degree of freedom for the fusion protein subunits. […]

Compound	localization of Atoh1-ER-DsRed to the nucleus [1]	time to complete cytoplasmic localization of the fusion protein after removal from the culture media [1] [weeks]	binding to / activation of the enhancer/promoter region of the Atoh1 gene [2]	Atoh1 mRNA expression (Atoh1 mRNA)	preference of binding to estrogen receptor isoforms [4]	also measured
CC/C(=C(\c1ccc(O)cc1)c1ccc(OCCN(C)C)cc1)c1ccccc1 [4OHT]	dose-dependent manner	≤ 2	dose-dependent increase; also recorded: induced activation of the Atoh1 enhancer region	upregulates the expression of Atoh1 in a dose-dependent manner; also recorded: increase in Atoh1 mRNA expression		myosin 7a labeling (myosin 7a; HEI OC1 cells transfected with Atoh1-ER-DsRed, differentiating conditions (39° C.), 1 mM 4OHT for three days, p<0.001 vs vehicle): 79%; DsRed fluorescence in the nuclear fraction ([1]; 1 nM 4OHT for 72 hrs): 848.0+/−29.33 au; DsRed fluorescence in the nuclear fraction ([1]; 1 mM 4OHT for 72 hrs): 3,200.9+/−156.95 au; Atoh1 protein levels (Atoh1 protein): increased the concentration of cytosolic Atoh1 protein in a dose-dependent manner; also recorded: increase in Atoh1 protein levels; nuclear localization of the fusion protein ([3]; cochlear spheres from ROSA26-GFP mice, 1 nM, after 48 hrs): punctate nuclear localization; minimum effective dose ([3]; for 2-7 days (FIG. 3)): 1 nM
C[C@]12CC[C@@H]3c4ccc(O)cc4CC[C@H]3[C@@H]1CC[C@@H]2O [17-beta-estradiol]					binds equally well to both receptors	
O=c1c(O)c(-c2ccc(O)c(O)c2)oc2cc(O)cc(O)c12 [Quercetin]					selectively binds to the estrogen receptor beta (ERβ)	
O=C(c1ccc(OCCN2CCCCC2)cc1)c1c(-c2ccc(O)cc2)sc2cc(O)ccc12 [raloxifene]					bind preferentially to the alpha receptor	
CC/C(=C(\c1ccccc1)c1ccc(OCCN(C)C)cc1)c1ccccc1 [tamoxifen]	dose-dependent localization	≤ 2	dose-dependent increase in binding	increased the expression of Atoh1 in a dose-dependent manner		myosin 7a positive cells within the spheres (myosin 7a; OC1 cells transfected with Atoh1-ER-DsRed, 3 days in differentiating conditions (39° C.)): significant increase; DsRed fluorescence against increasing Tamoxifen concentration ([1]; 1 μM): increased fluorescence compared to higher (100 μM) and lower doses (1 nM); minimum effective dose ([1]; for 2-7 days, HEK cells (FIG. 2)): 1 nM; hair cells in electroporated organs of Corti (organs of Corti): supernumerary hair cells
Flag-Atoh1-ER: construct encoding a flag-tagged Atoh1-ER fusion protein without DsRed (SEQ ID NO: 16)						Atoh1 promoter/enhancer binding, Atoh1 mRNA transcription and Atoh1 protein translation compared with the flag-Atoh1-ER-DsRed construct (Atoh1 promoter/enhancer): on average higher than, but not significantly different from
